# Values of other authors in patent US20240082270A1 (priority 2021, published 2024).
# pIC50, pKi: −log10 of the molar value. Read-outs that look alike come from different tables or passages of the source.
# How the values were obtained:
# CB1R = CB1R (Homo sapiens, UniProt P21554)
# SARS-CoV-2 [1] = conditions: lung epithelial cells
# human CBR = conditions: rather non-selectively
# [2] = stress and anxiety
# mouse bladder = conditions: induced by acetylcholine
# [3] = emulsified, small dispersed molecules
# [4] = Lennox-Gastaut and Dravet syndrome
# [5] = after oral CBD in rats
# SARS-CoV-2 [6] = conditions: cohort of human patients previously taking CBD
# 5-HT1A receptor = 5-HT1A receptor (Homo sapiens, UniProt P08908)
# [7] = pharmaceutical CBD, up to 1500 mg/day for 6 weeks
# [8] = system: pseudovirus expressing the SARS-CoV-2 spike protein
# SARS-CoV-2 spike protein [9] = molecular target: T1, SARS-CoV-2 spike protein (Severe acute respiratory syndrome coronavirus 2, UniProt P0DTC2); conditions: allosteric as well as orthosteric ligands
# [10] = animal studies
# [11] = system: store-operated calcium (Ca2+) entry (SOCE); conditions: human T lymphocytes
# [12] = dog
# [13] = mouse, in vivo
# SARS-CoV-2 spike protein [14] = molecular target: T1, SARS-CoV-2 spike protein
# [15] = molecular target: SARS-CoV-2 main proteases (Severe acute respiratory syndrome coronavirus 2, UniProt P0DTD1)
# melanoma = conditions: inhibition of E2F1 transcription
# mast cells = conditions: higher concentration
# [16] = after 30 min ingestion
# [17] = if stored properly
# [18] = not given; remark: listed apart in the source
# protein kinase B = conditions: oxidative muscles
# CB2R [19] = molecular target: CB2R (Homo sapiens, UniProt P34972)
# [20] = rectal
# [21] = molecular target: acylglycerol lipase, MAG1 (Homo sapiens, UniProt Q99685); conditions: reversible mechanism
# mice = conditions: inhaled from ambient air
# [22] = chronic or single dose, versus control group without piperine
# [23] = not given; remark: listed apart in the source
# CB2R [24] = molecular target: T2, CB2R (Mus musculus, UniProt P47936); conditions: oral, <5 mg-kg^−1
# T2 construct: host or cells: wild-type mice, in vivo (oral dosing)
# [25] = skin models
# CB2R (Homo sapiens, UniProt P34972), sequence (P34972 whole entry): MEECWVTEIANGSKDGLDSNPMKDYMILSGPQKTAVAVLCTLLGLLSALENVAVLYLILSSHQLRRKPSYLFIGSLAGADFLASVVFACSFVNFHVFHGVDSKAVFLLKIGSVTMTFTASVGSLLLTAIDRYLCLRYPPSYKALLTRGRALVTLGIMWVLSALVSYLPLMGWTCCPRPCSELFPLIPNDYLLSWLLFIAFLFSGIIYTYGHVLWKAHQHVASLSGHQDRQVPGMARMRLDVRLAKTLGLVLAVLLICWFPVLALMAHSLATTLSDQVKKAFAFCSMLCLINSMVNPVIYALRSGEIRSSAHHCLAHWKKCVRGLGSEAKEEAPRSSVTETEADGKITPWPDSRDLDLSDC
# 5-HT1A receptor, sequence (P08908 whole entry): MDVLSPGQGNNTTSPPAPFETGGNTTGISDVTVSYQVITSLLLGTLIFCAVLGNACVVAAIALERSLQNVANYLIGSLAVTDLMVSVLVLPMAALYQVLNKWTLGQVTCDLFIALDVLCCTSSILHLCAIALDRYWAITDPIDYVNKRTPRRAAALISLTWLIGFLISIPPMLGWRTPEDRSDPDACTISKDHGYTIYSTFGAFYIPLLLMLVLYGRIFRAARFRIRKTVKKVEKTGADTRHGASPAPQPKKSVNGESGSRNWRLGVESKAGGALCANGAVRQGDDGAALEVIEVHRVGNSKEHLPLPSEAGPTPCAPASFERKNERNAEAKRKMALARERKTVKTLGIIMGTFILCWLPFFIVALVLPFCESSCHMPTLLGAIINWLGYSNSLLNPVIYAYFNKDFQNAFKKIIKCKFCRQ
# acylglycerol lipase, MAG1, sequence (Q99685 whole entry): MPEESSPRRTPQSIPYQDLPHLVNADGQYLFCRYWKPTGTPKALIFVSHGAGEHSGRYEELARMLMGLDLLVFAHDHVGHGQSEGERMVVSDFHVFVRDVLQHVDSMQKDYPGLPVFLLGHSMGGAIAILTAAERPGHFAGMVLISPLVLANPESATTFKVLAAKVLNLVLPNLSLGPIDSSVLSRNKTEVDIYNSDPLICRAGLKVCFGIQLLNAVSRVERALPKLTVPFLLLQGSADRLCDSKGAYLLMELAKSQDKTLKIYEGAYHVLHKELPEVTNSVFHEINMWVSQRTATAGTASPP
# CB1R, sequence (P21554 whole entry): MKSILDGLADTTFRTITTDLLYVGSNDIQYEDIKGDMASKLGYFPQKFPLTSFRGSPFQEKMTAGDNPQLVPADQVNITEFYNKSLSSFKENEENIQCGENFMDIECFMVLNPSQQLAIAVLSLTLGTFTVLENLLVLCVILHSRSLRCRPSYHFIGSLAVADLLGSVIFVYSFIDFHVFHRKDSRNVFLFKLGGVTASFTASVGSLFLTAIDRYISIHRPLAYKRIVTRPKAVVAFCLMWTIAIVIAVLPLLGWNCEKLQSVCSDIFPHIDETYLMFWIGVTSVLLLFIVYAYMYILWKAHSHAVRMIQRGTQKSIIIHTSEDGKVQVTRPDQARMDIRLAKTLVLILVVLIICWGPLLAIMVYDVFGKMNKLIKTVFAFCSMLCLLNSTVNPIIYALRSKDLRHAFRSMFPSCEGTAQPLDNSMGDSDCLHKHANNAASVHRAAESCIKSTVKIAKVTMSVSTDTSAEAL
# T2 sequence (P47936 whole entry): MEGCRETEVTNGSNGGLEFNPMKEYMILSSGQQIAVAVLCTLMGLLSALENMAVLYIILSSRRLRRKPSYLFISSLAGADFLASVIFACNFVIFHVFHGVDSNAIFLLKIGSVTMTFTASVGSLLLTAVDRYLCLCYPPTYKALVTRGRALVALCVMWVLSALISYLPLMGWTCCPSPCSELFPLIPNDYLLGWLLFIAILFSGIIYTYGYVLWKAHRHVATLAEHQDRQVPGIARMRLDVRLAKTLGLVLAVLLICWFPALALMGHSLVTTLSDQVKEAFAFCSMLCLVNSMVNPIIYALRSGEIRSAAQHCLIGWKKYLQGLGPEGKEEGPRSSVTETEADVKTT
compound,measurement,setting,value
"CCCCC/C=C\C/C=C\C/C=C\C/C=C\CCCCOC(CO)CO [2-AGE, 2-arachidonyl glyceryl ether]",pKi,CB1R; read-out: Ki,7.67
C=C(C)[C@@H]1CCC(CO)=C[C@H]1c1c(O)cc(CCCCC)cc1O [7-OH-CBD],SARS-CoV-2 replication,SARS-CoV-2 [1],block SARS-CoV-2 replication
Oc1cc(O)c2c(c1)O[C@H](c1cc(O)c(O)c(O)c1)[C@H](O)C2 [(−)-epigallocatechin],concentrations at which binding to human CBR was shown,human CBR,high μM concentrations
"CCCCCc1cc(O)c2c(c1)OC(C)(CCC=C(C)C)C=C2 (centres unmarked) [CBC, cannabichromene]",potency relative to CBD,[2],up to 10 times
"C=C(C)[C@@H]1CCC(C)=C[C@H]1c1c(O)cc(CCCCC)cc1O [CBD, Cannabidiol]",ranked potency of detrusor contraction inhibition,mouse bladder,"CBG=THCV>CBD>CBDV, but not CBC"
same,"degradation, average values","effect of light, after 30 days",up to 15%
same,"degradation, average values",stored at 37° C. for 30 days,up to 20%
same,sublingually absorbed,[3],up to 35%
same,reduction in seizures rate,[4],50%
same,time of peak brain concentration,[5],6 h
same,time of peak serum level,[5],1 h
same,SARS-CoV-2 replication,SARS-CoV-2 [1],block SARS-CoV-2 replication
same,SARS-CoV-2 infection incidence,SARS-CoV-2 [6],significantly lower
same,concentration that synergistically enhances other 5-HT1A receptor agonists,5-HT1A receptor,100 nM
same,concentrations at which the 5-HT1A receptor is activated,5-HT1A receptor,above 10 μM
same,physical withdrawal symptoms,[7],No physical withdrawal symptoms were observed
C=C(C)[C@@H]1CCC(C)=C[C@H]1c1c(O)cc(CCCCC)c(C(=O)O)c1O [CBDA],infection of human epithelial cells by pseudovirus,[8],prevented infection
same,entry of live SARS-CoV-2 into cells,live SARS-CoV-2,prevented entry
same,affinity for the spike protein,SARS-CoV-2 spike protein [9],micromolar affinity
"C=C(C)[C@@H]1CCC(C)=C[C@H]1c1c(O)cc(CCC)cc1O [CBDV, Cannabidivarin]",ranked potency of detrusor contraction inhibition,mouse bladder,"CBG=THCV>CBD>CBDV, but not CBC"
same,time of peak brain concentrations,[10],30 min
C=C(C)[C@@H]1CCC(C)=C[C@H]1c1c(O)cc(CCC)c(C(=O)O)c1O [CBDVA],time of peak brain concentrations,[10],15 min
"CCCCCc1cc(O)c(C/C=C(\C)CCC=C(C)C)c(O)c1C(=O)O [CBGA, cannabigerolic acid]",infection of human epithelial cells by pseudovirus,[8],prevented infection
same,entry of live SARS-CoV-2 into cells,live SARS-CoV-2,prevented entry
same,potency against SOCE (blocking CRAC currents),[11],dose-dependent high potency
same,adverse effects monitored by blood testing,[12]; 2 weeks of high twice daily dosing,no adverse effects
same,oral absorption,[12]; with or without food,orally absorbed significantly better than CBG
same,time of peak brain concentrations,[10],45 min
same,effect on hyperthermia-induced seizures,[13],more effective for seizures triggered by a febrile event than CBD
same,affinity for the spike protein,SARS-CoV-2 spike protein [9],micromolar affinity
"CCCc1cc(O)c(C/C=C(\C)CCC=C(C)C)c(O)c1 [CBGV, cannabigerovarin]",time of peak brain concentrations,[10],30 min
same,effect on hyperthermia-induced seizures,[13],Neither CBG nor CBGV affected thresholds
"CCCc1cc(O)c(C/C=C(\C)CCC=C(C)C)c(O)c1C(=O)O [CBGVA, cannabigerovarinic acid]",time of peak brain concentrations,[10],15 min
"Nc1ncnc2c1ncn2[C@@H]1O[C@H](CO)C[C@H]1O [Cordycepin, 3′-deoxyadenosine]",binding affinity,SARS-CoV-2 spike protein [14],−145.3
same,binding affinity,[15],−180.5
C=CCc1ccc(O)c(OC)c1 [Eugenol],concentration inducing apoptosis,HL-60 leukemia cells,40 µmol/L
same,concentration inhibiting melanoma growth,melanoma,0.5 to 2.5 µmol⁻¹
same,concentration leading to translocation of phospho-Ser15-p53 into mitochondria,mast cells,700 µmol/L
CC(C)=CCC/C(C)=C/CO [Geraniol],bioavailability,[16],92%
C[C@H]1CC[C@@H](C(C)(C)O)CC2=C1CC[C@@H]2C [Guaiol],Shelf Life,[17],≥ 12 month(s)
"CCCCCc1cc(OC)c(C/C=C(\C)CCC=C(C)C)c(OC(=O)CCN2CCOCC2)c1 [HUM-234, Monomethoxycannabigeroyl-β-morpholinoproprionate]",obesity,[18]; mice fed a high-fat diet (HFD),prevents obesity
same,TNF-α levels,"[18]; mouse, in vivo",increases TNF-α at higher doses
C[C@@H](O)CC(=O)O [R-BHB],inhibition of insulin-mediated phosphorylation of protein kinase B,protein kinase B,50%
CCCCCc1cc(O)c(C/C=C(\C)CC/C=C(\C)CCC=C(C)C)c(O)c1 [Sesquicannabigerol],affinity at CB2R higher than CBG,CB2R [19]; relative to CBG,5 fold
"CCCCCc1cc(OC(=O)CCC(=O)O)c2c(c1)OC(C)(C)[C@@H]1CCC(C)=C[C@@H]21 [THC-HS, THC-hemisuccinate]",bioavailability,[20],70-80%
"CCCc1cc(O)c2c(c1)OC(C)(C)[C@@H]1CCC(C)=C[C@@H]21 [THCV, tetrahydrocannabivarin]",ranked potency of detrusor contraction inhibition,mouse bladder,"CBG=THCV>CBD>CBDV, but not CBC"
same,time of peak brain concentrations,[10],30 min
same,effect on hyperthermia-induced seizures,[13],resulted in seizures at lower temperature thresholds
O=C(O[C@@H]1Cc2c(O)cc(O)cc2O[C@@H]1c1cc(O)c(O)c(O)c1)c1cc(O)c(O)c(O)c1 [epigallocatechin β-gallate],concentrations at which binding to human CBR was shown,human CBR,high μM concentrations
CC(C)=CCC[C@@H](C)[C@@H]1CC[C@]2(C)C3=C(CC[C@@]12C)[C@@]1(C)CC[C@H](O)C(C)(C)[C@@H]1CC3 [euphol],pIC50,[21]; read-out: IC50,6.50
C=C[C@H](O)C#CC#CC/C=C\CCCCCCC [falcarinol],pKi,"CB1R; read-out: Ki value, CB1R",> 6.00
C=C(C)[C@H]1CC=C(C)CC1 [limonene],increase in motility,mice,35.25%
C=CC(C)(O)CCC=C(C)C (centres unmarked) [linalool],reduction in motility,mice,73%
"O=C(/C=C/C=C/c1ccc2c(c1)OCO2)N1CCCCC1 [piperine, Piperine]",increase in oral bioavailability of CBD,[22],~2.5 fold
COC(=O)[C@]1(C)CC[C@]2(C)CC[C@]3(C)C4=CC=C5C(=CC(=O)C(O)=C5C)[C@]4(C)CC[C@@]3(C)[C@@H]2C1 [pristimerin],pIC50,[21],7.03
C=C1CC/C=C(\C)CC[C@@H]2[C@@H]1CC2(C)C [β-caryophyllene],Tmax,[23]; one single oral administration,> 1 h
same,maximal onset,[23]; orally administered,1 h
same,pKi,"CB2R [19]; CB2R, full agonist",6.81
same,anti-inflammatory and analgesic effects,CB2R [24],strong anti-inflammatory and analgesic effects in wild-type mice but not in CB2 receptor knockout mice
CC[C@H](CC[C@@H](C)[C@H]1CC[C@H]2[C@@H]3CC=C4C[C@@H](O)CC[C@]4(C)[C@H]3CC[C@]12C)C(C)C [β-sitosterol],reduction of chronic edema,[25],41%
same,reduction of topical inflammation,[25],65%
pinene,increase in motility,mice,13.77%
